Laboratory results taken from ChEMBL document CHEMBL1137750, “Synthesis and biological evaluation of 4,5-diphenyloxazolone derivatives on route towards selective COX-2 inhibitors” (Eur J Med Chem, 2009).

Columns and labels:
[1] = molecular target: T1, Prostaglandin G/H synthase 2 (Homo sapiens) (UniProt P35354); assay: Inhibition of COX2 in LPS-stimulated human whole blood assessed as PGE2 production by enzyme immunoassay; type: tissue-based; details: concentration not given here
T1 sequence (whole entry): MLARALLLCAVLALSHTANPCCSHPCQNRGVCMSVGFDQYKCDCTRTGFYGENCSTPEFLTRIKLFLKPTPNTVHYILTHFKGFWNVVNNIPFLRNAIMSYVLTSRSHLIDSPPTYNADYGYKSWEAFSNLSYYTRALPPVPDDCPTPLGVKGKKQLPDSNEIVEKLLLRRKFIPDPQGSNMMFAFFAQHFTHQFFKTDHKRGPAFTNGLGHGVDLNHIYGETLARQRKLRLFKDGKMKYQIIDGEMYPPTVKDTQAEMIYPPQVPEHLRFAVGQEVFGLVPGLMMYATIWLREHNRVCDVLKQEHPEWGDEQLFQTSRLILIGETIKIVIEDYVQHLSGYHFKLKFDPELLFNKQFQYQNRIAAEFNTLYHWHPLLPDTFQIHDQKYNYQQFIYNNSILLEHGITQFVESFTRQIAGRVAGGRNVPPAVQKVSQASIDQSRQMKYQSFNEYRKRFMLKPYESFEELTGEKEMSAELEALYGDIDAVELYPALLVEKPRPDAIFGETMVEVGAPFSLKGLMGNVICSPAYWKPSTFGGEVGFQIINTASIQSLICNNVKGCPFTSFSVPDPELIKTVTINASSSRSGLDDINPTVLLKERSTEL

[2] = molecular target: Prostaglandin G/H synthase 1 (Homo sapiens) (UniProt P23219); assay: Inhibition of COX1 in human whole blood assessed as TXB2 production at 10 uM by enzyme immunoassay
Ovis aries = species on record: Ovis aries; assay: Selectivity index, raio of IC50 for ovine COX1 to IC50 for ovine COX2
[3] = molecular target: T2, Prostaglandin G/H synthase 1 (Ovis aries) (UniProt P05979); assay: Inhibition of ovine COX1 at 100 uM by enzyme immunoassay relative to control
T2 sequence (whole entry): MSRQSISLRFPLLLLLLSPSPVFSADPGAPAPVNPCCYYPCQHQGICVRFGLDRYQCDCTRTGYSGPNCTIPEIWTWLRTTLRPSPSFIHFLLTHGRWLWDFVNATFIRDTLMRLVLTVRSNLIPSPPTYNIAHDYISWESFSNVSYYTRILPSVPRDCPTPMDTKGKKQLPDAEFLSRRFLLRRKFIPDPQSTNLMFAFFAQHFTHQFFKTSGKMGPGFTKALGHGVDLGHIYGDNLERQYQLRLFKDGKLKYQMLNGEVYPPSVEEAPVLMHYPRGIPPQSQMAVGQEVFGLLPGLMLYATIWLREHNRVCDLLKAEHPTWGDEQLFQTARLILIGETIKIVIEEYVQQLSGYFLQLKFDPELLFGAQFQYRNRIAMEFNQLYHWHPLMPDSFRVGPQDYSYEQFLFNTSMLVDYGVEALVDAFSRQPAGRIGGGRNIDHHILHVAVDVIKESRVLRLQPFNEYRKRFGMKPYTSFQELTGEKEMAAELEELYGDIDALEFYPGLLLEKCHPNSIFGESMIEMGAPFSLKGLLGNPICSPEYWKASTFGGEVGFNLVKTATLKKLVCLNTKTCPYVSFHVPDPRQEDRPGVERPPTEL

[4] = molecular target: T3, Prostaglandin G/H synthase 1 (Ovis aries, UniProt P05979); assay: Inhibition of ovine COX1 by enzyme immunoassay
T3 sequence (P05979 whole entry): T2 sequence (whole entry)

[5] = molecular target: T2, Prostaglandin G/H synthase 1 (Ovis aries); assay: Inhibition of ovine COX1 at 10 uM by enzyme immunoassay relative to control

Chain of Prostaglandin G/H synthase 1 (Homo sapiens) (P23219 whole entry): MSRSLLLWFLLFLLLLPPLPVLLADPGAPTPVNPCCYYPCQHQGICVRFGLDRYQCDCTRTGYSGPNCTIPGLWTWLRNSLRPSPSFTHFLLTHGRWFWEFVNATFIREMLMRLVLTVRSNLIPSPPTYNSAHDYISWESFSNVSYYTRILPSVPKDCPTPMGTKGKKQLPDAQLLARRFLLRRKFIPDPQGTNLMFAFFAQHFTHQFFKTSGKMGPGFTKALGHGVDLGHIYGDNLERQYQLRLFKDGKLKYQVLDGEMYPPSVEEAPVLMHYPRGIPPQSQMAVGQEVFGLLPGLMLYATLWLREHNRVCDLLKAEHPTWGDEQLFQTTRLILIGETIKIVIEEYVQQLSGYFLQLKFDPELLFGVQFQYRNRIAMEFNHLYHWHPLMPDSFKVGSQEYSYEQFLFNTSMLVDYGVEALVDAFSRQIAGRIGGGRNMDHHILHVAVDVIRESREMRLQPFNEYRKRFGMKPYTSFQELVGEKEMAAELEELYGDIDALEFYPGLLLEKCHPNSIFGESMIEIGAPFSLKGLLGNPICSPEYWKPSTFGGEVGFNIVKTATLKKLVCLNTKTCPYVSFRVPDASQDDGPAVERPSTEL

Row | Compound | inhibition [1] [%] | inhibition [2] [%] | Ratio IC50 (Ovis aries) | inhibition [3] [%] | IC50 [4] [µM] | inhibition [5] [%]
1 | Cn1c(-c2ccccc2)c(-c2ccc(S(N)(=O)=O)cc2)oc1=O | 85 | 7 | > 50 | 19.3 | > 100 | 3.56
2 | COc1ccc2c(c1)c(CC(=O)O)c(C)n2C(=O)c1ccc(Cl)cc1 | – | – | – | – | – | 71.9
